Experimental data: patent publication US5041567A, “Antibacterial monic acid derivatives” (Beecham Group plc, priority 1982, dated 1991)
Values after ≈ are worked out from the molar mass of the structure shown. Where two headings read alike, the source gives them in different places.

How the values were obtained:
M. suipneumoniae JF 435 = assay: MIC against mycoplasma in vitro; type: cell-based; details: Mesomycoplasma hyopneumoniae, JF435, 144 h
M. suipneumoniae Str. 11 = assay: MIC against mycoplasma in vitro; type: cell-based; details: Mesomycoplasma hyopneumoniae
[1] = test system: M. suipneumoniae PW/C/210; assay: MIC against mycoplasma in vitro; type: cell-based; details: Mesomycoplasma hyopneumoniae, 144 h
[2] = test system: M. suipneumoniae NCTC 10110; assay: MIC against mycoplasma in vitro; type: cell-based; details: Mesomycoplasma hyopneumoniae, NCTC10110, 144 h
M. dispar NCTC 10125 = assay: MIC against mycoplasma in vitro; type: cell-based; details: 144 h
M. gallisepticum S6 = assay: MIC against mycoplasma in vitro; type: cell-based; details: Mycoplasmoides gallisepticum
M. pneumoniae ATCC 15492 = assay: MIC against mycoplasma in vitro; type: cell-based; details: Mycoplasmoides pneumoniae, ATCC15492, 144 h
E. coli NCTC 10418 [3] = assay: MIC against human bacteria in vitro; type: cell-based; details: Escherichia coli, NCTC10418; E. coli NCTC 10418; agar with 5% chocolated horse blood, 18 hours, 37° C.; read-out: MIC
E. coli ESS = assay: MIC against human bacteria in vitro; type: cell-based; details: Escherichia coli; E. coli ESS; 5% chocolated horse blood agar, 18 hours; read-out: MIC
[4] = test system: Pasteurella multocida 1633; assay: MIC against human bacteria in vitro; type: cell-based; details: Pasteurella multocida 1633; 5% chocolated horse blood agar, 18 hours; read-out: MIC
Bacillus subtilis 6633 = assay: MIC against human bacteria in vitro; type: cell-based
Staph. aureus Oxford [5] = assay: MIC against human bacteria in vitro; type: cell-based; details: Staphylococcus aureus; Staph. aureus Oxford; 5% chocolated horse blood agar, 18 hours; read-out: MIC
[6] = test system: Strep. pyogenes R80/421-A; assay: MIC against human bacteria in vitro; type: cell-based; details: Streptococcus pyogenes; Strep. pyogenes R80/421-A; 5% chocolated horse blood agar, 18 hours; read-out: MIC
Strep. spp. 64/848-C = assay: MIC against human bacteria in vitro; type: cell-based; details: Strep. spp. 64/848-C; 5% chocolated horse blood agar, 18 hours; read-out: MIC
E. coli NCTC 10418 [7] = assay: MIC against veterinary bacteria in vitro; details: Escherichia coli, NCTC10418, 18 h
Description: (§1) The activity of the compounds of the Examples against various veterinarily important bacteria, was assayed in vitro using two-fold serial dilutions in Diagnostic Sensitivity Test Agar inoculated with 10^4 organisms.

E. coli E1 = assay: MIC against veterinary bacteria in vitro; details: Escherichia coli, E1, 18 h
Description: as §1

S. dublin S7 = assay: MIC against veterinary bacteria in vitro; details: Salmonella enterica, S7, 18 h
Description: as §1

S. typhimurium S18 = assay: MIC against veterinary bacteria in vitro; details: Salmonella enterica, TYPHIMURIUM, 18 h
Description: as §1

[8] = test system: Staph. aureus 152 (pen. sens); assay: MIC against veterinary bacteria in vitro; details: Staphylococcus aureus, 18 h
Description: as §1

Staph. aureus Oxford [9] = assay: MIC against veterinary bacteria in vitro; details: Staphylococcus aureus, 18 h
Description: as §1

Strep. uberis SPU1 = assay: MIC against veterinary bacteria in vitro; details: Streptococcus uberis, SPU1, 18 h
Description: as §1

Strep. agalactiae SPA1 = assay: MIC against veterinary bacteria in vitro; details: Streptococcus agalactiae, SPA1, 18 h
Description: as §1

B. subtilis ATCC 6633 = assay: MIC against veterinary bacteria in vitro; details: Bacillus subtilis, ATCC6633, 18 h
Description: as §1

[10] = 144 h, M. suipneumoniae Str. 11, 6 days, 37° C., read-out: MIC
[11] = M. suipneumoniae PW/C/210, 6 days, 37° C., read-out: MIC
[12] = M. dispar NCTC 10125, 6 days, 37° C., read-out: MIC
[13] = 144 h, M. gallisepticum S6, 6 days, 37° C., read-out: MIC
[14] = M. pneumoniae ATCC 15492, 6 days, 37° C., read-out: MIC
[15] = Bacillus subtilis 6633, 5% chocolated horse blood agar, 18 hours, read-out: MIC
[16] = M. suipneumoniae JF 435, 6 days, 37° C., read-out: MIC
[17] = M. suipneumoniae NCTC 10110, 6 days, 37° C., read-out: MIC

| Compound | MIC (M. suipneumoniae JF 435) [µg/mL] | MIC (M. suipneumoniae Str. 11; [10]) [µg/mL] | MIC [1, 11] [µg/mL] | MIC [2] [µg/mL] | MIC (E. coli NCTC 10418 [3]) [µg/mL] | MIC (E. coli ESS) [µg/mL] | MIC [4] [µg/mL] | MIC (Bacillus subtilis 6633; [15]) [µg/mL] | MIC (Staph. aureus Oxford [5]) [µg/mL] | MIC [6] [µg/mL] | MIC (Strep. spp. 64/848-C) [µg/mL] | MIC (E. coli NCTC 10418 [7]) [µg/mL] | MIC (E. coli E1) [µg/mL] | MIC (S. dublin S7) [µg/mL] | MIC (S. typhimurium S18) [µg/mL] | MIC [8] [µg/mL] | MIC (Staph. aureus Oxford [9]) [µg/mL] | MIC (Strep. uberis SPU1) [µg/mL] | MIC (Strep. agalactiae SPA1) [µg/mL] | MIC (B. subtilis ATCC 6633) [µg/mL] | other results |
| --- | --- | --- | --- | --- | --- | --- | --- | --- | --- | --- | --- | --- | --- | --- | --- | --- | --- | --- | --- | --- | --- |
| CSc1cccc(-c2cnc(/C=C(\C)C[C@@H]3OC[C@H](C[C@@H]4O[C@H]4[C@@H](C)[C@H](C)O)[C@@H](O)[C@H]3O)o2)c1 [Example 22, 5-m-Methylthiophenyl-2-(1-normon-2-yl)oxazole A] | 1 (≈ 2.04 µM) | 0.5 (≈ 1.02 µM) | 0.5 (≈ 1.02 µM) | 1 (≈ 2.04 µM) | > 128 | 64 (≈ 131 µM) | 32 (≈ 65.4 µM) | 4 (≈ 8.17 µM) | 4 (≈ 8.17 µM) | 8 (≈ 16.3 µM) | 16 (≈ 32.7 µM) | > 80 | > 80 | > 80 | > 80 | 1.25 (≈ 2.55 µM) | 2.5 (≈ 5.11 µM) | 0.156 (≈ 0.319 µM) | 10 (≈ 20.4 µM) | 0.625 (≈ 1.28 µM) | MIC (M. dispar NCTC 10125; [12]): 0.5 µg/mL (≈ 1.02 µM); MIC (M. gallisepticum S6; [13]): 5 µg/mL (≈ 10.2 µM); MIC (M. pneumoniae ATCC 15492; [14]): 5 µg/mL (≈ 10.2 µM) |
| C/C(=C\c1ncc(-c2cccc(S(C)(=O)=O)c2)o1)C[C@@H]1OC[C@H](C[C@@H]2O[C@H]2[C@@H](C)[C@H](C)O)[C@@H](O)[C@H]1O [Example 23, 5-m-Methylsulphonylphenyl-2-(1-normon-2-yl) oxazole A] | 1 (≈ 1.92 µM) | 0.5 (≈ 0.959 µM) | 0.5 (≈ 0.959 µM) | 1 (≈ 1.92 µM) | > 64 | 4 (≈ 7.67 µM) | 2 (≈ 3.83 µM) | 2 (≈ 3.83 µM) | 4 (≈ 7.67 µM) | 0.5 (≈ 0.959 µM) | 2 (≈ 3.83 µM) | > 80 | > 80 | > 80 | > 80 | 2.5 (≈ 4.79 µM) | 10 (≈ 19.2 µM) | 0.625 (≈ 1.2 µM) | 2.5 (≈ 4.79 µM) | 1.25 (≈ 2.4 µM) | MIC (M. dispar NCTC 10125; [12]): 0.5 µg/mL (≈ 0.959 µM); MIC (M. gallisepticum S6; S6, 144 h): 1 µg/mL (≈ 1.92 µM); MIC (M. pneumoniae ATCC 15492): 1 µg/mL (≈ 1.92 µM) |
| C/C(=C\c1ncc(-c2ccc(S(=O)(=O)N(C)C)cc2)o1)C[C@@H]1OC[C@H](C[C@@H]2O[C@H]2[C@@H](C)[C@H](C)O)[C@@H](O)[C@H]1O [Example 24, 5-p-Dimethylaminosulphonylphenyl-2-(1-normon-2-yl)oxazole A] | 0.25 (≈ 0.454 µM) | 0.1 (≈ 0.182 µM) | 0.1 (≈ 0.182 µM) | 0.25 (≈ 0.454 µM) | > 64 | 4 (≈ 7.26 µM) | 16 (≈ 29.1 µM) | 4 (≈ 7.26 µM) | 4 (≈ 7.26 µM) | 2 (≈ 3.63 µM) | 4 (≈ 7.26 µM) | > 80 | > 80 | > 80 | > 80 | 0.625 (≈ 1.13 µM) | 1.25 (≈ 2.27 µM) | 0.312 (≈ 0.567 µM) | 1.25 (≈ 2.27 µM) | 0.312 (≈ 0.567 µM) | MIC (M. dispar NCTC 10125): 0.1 µg/mL (≈ 0.182 µM); MIC (M. gallisepticum S6; [13]): 0.5 µg/mL (≈ 0.908 µM); MIC (M. pneumoniae ATCC 15492; [14]): 0.5 µg/mL (≈ 0.908 µM) |
| C/C(=C\c1ncc(-c2cccc([S+](C)[O-])c2)o1)C[C@@H]1OC[C@H](C[C@@H]2O[C@H]2[C@@H](C)[C@H](C)O)[C@@H](O)[C@H]1O (stereo partly drawn) [Example 25, 5-m-Methylsulphinylphenyl-2-(1-normon-2-yl)oxazole A] |  | 0.5 (≈ 0.989 µM) |  | 1 (≈ 1.98 µM) | > 128 | 4 (≈ 7.91 µM) | 16 (≈ 31.6 µM) | 2 (≈ 3.96 µM) | 4 (≈ 7.91 µM) | 2 (≈ 3.96 µM) | 4 (≈ 7.91 µM) | > 80 | > 80 | > 80 | > 80 | 10 (≈ 19.8 µM) | 20 (≈ 39.6 µM) | 0.625 (≈ 1.24 µM) | 2.5 (≈ 4.94 µM) | 2.5 (≈ 4.94 µM) | MIC (M. suipneumoniae JF 435; [16]): 0.5 µg/mL (≈ 0.989 µM); MIC [1]: 0.25 µg/mL (≈ 0.494 µM); MIC (M. dispar NCTC 10125): 0.25 µg/mL (≈ 0.494 µM); MIC (M. gallisepticum S6; S6, 144 h): 2.5 µg/mL (≈ 4.94 µM); MIC (M. pneumoniae ATCC 15492): 2.5 µg/mL (≈ 4.94 µM) |
| C/C(=C\c1ncc(-c2ccccc2[N+](=O)[O-])o1)C[C@@H]1OC[C@H](C[C@@H]2O[C@H]2[C@@H](C)[C@H](C)O)[C@@H](O)[C@H]1O [Example 26, 5-o-Nitrophenyl-2-(1-normon-2-yl)oxazole A] | 2.5 (≈ 5.12 µM) |  |  |  | > 128 | 8 (≈ 16.4 µM) | 16 (≈ 32.8 µM) |  | 4 (≈ 8.19 µM) | 1 (≈ 2.05 µM) | 2 (≈ 4.09 µM) | > 80 | > 80 | > 80 | > 80 | 2.5 (≈ 5.12 µM) | 2.5 (≈ 5.12 µM) | 0.156 (≈ 0.319 µM) | 2.5 (≈ 5.12 µM) | 0.312 (≈ 0.639 µM) | MIC (M. suipneumoniae Str. 11; STR.11, 144 h): 2.5 µg/mL (≈ 5.12 µM); MIC [1]: 1 µg/mL (≈ 2.05 µM); MIC [2, 17]: 5 µg/mL (≈ 10.2 µM); MIC (M. dispar NCTC 10125): 1 µg/mL (≈ 2.05 µM); MIC (M. gallisepticum S6; S6, 144 h): 2.5 µg/mL (≈ 5.12 µM); MIC (M. pneumoniae ATCC 15492): 2.5 µg/mL (≈ 5.12 µM); MIC (Bacillus subtilis 6633; Bacillus subtilis, 6633, 18 h): 0.25 µg/mL (≈ 0.512 µM) |
| C/C(=C\c1ncc(Cc2ccccc2)o1)C[C@@H]1OC[C@H](C[C@@H]2O[C@H]2[C@@H](C)[C@H](C)O)[C@@H](O)[C@H]1O [Example 27, 5-Benzyl-2-(1-normon-2-yl)oxazole A] |  | 5 (≈ 10.9 µM) | 5 (≈ 10.9 µM) |  | > 64 | 16 (≈ 35 µM) | 32 (≈ 69.9 µM) | 4 (≈ 8.74 µM) | 8 (≈ 17.5 µM) | 4 (≈ 8.74 µM) | 16 (≈ 35 µM) | > 80 | > 80 | > 80 | > 80 | 10 (≈ 21.9 µM) | 10 (≈ 21.9 µM) | 1.25 (≈ 2.73 µM) | 20 (≈ 43.7 µM) | 2.5 (≈ 5.46 µM) | MIC (M. suipneumoniae JF 435; [16]): 10 µg/mL (≈ 21.9 µM); MIC [2, 17]: 10 µg/mL (≈ 21.9 µM); MIC (M. dispar NCTC 10125): 2.5 µg/mL (≈ 5.46 µM); MIC (M. gallisepticum S6; [13]): > 10 µg/mL; MIC (M. pneumoniae ATCC 15492; [14]): 10 µg/mL (≈ 21.9 µM) |
